Experimental data as given in patent US20140348850A1, “METHOD FOR REDUCING BLOOD PRESSURE USING INHIBITORS OF PLASMA KALLIKREIN” (JOSLIN DIABETES CENTER, priority 2008, published 2014).

Tests used:
[1] = test system: retinal vasculature of diabetic rats; assay: Retinal vessel diameters, mean circulation time and retinal blood flow in STZ-diabetic rats (video fluorescein angiography); format: in vivo, Sprague Dawley rats
Procedure: FIGS. 2A and 2B are graphs showing normalized retinal blood flow (FIG. 2A) and increased blood vessel diameter (FIG. 2B) following ASP-440 administration in diabetic rats.
We examined the effect of ASP-440 on retinal vessel diameters, mean circulation times (MCT), and retinal blood flow (RBF) in rats with diabetes. Diabetes was induced in Sprague Dawley rats with an intraperitoneal injection of 55 mg/kg of streptozotocin (STZ) (Sigma, St. Louis, Mo., USA) in 10 mmol/l citrate buffer, pH 4.5 after a 12 h fast. Diabetes was confirmed with blood glucose measurements (>14 mmol/l) 24 h after STZ injection. The rats were housed under standard conditions with free access to water and standard food. Two weeks after diabetes onset rats were implanted with a subcutaneous osmotic model 2002 Alzet pump containing either 12 mg/ml ASP-440 or saline vehicle. Rats were infused for 2 weeks at a rate of 0.5 μg/hr. Retinal vessel diameters and MCT was measured after 4 weeks of total diabetes duration and RBF was calculated as described by Horio et al. (Diabetologia 47:113-23, 2004).
To make the measurements described above, the following procedure was used. […] The recorded fluorescein angiograms were digitized on a frame-by-frame basis and analyzed densitometrically to determine retinal vessel diameters and retinal mean circulation times (MCTs), as described by Horio et al. (supra). […] Vessel diameters in units of pixels were determined during peak fluorescein arterial and venous filling times at the defined vessel sample sites using a boundary-crossing algorithm. The average diameter for each vessel was measured for each sample site. […] At the fixed vessel sites, the average vessel fluorescence within a sample area defined by the vessel width was measured on a frame-by-frame basis to generate temporal fluorescence intensity or dye dilution curves. The resultant artery and vein fluorescence data were fit to a log normal distribution function from which average arterial and venous circulation times were calculated. […]

[2] = test system: Ang-II-induced hypertension; assay: BP-lowering effect in Ang-II-induced rat hypertension model (telemetry); format: in vivo; conditions: rats infused with Ang-II 300 ng/kg/min; ASP-440 16 ƒg/kg/hr by subcutaneous osmotic pump; vs Ang-II alone
Excerpt: FIG. 1 is a graph showing the time course of systolic blood pressure (SBP) measured using telemetry in rats infused with Ang-II in the absence or presence of ASP-440. * and † indicate p<0.05 for Day 0 vs Ang-II alone (n=4) and Ang-II+ASP-440 (n=7), respectively. ‡ indicates p<0.05 for Ang-II alone vs Ang-Il^+ ASP-440. NS indicates statistically non-significant change from Day 0.
Rats were infused continuously with Ang-II, and concurrently with either ASP-440 or vehicle control. Treatments were achieved by the use of subcutaneous implantation of two sets of Alzet mini-osmotic pumps (DURECT corporation, Cupertino Calif.), one containing Ang-II, the other containing either ASP-440 or vehicle control. Angll (EMD Chemicals Inc, La Jolla, Calif.) was delivered at 300 ng/kg/min. ASP-440 was delivered at 16 ƒg/kg/hr, and control pumps were filled with vehicle (10% polyethylene glycol, 90% phosphate-buffered saline).
Blood pressure measurements by telemetry were performed using PA-C40 transmitters (Data Sciences International, St. Paul, Minn.). […] Rats were housed individually on a receiver pad and blood pressure was monitored continuously. […] Baseline readings (Day 0) were obtained 48 hours after catheter implantation, following implantation of Alzet mini-pumps.

[3] = 2 weeks subcutaneous pump infusion (12 mg/ml ASP-440), vs diabetic rats receiving vehicle

Structure (SMILES): N=C(N)c1ccc(CNC(=O)c2cnn(Cc3ccccc3)c2)cc1 [ASP-440, 1-Benzyl-1H-pyrazole-4-carboxylic acid 4-carbamimidoyl-benzylamide]
- retinal blood flow (RBF) [1, 3]: increased RBF
- retinal mean circulation time (MCT) [1, 3]: shortened MCT
- retinal artery and vein diameters ([1]; 2 weeks subcutaneous pump infusion, vs nondiabetic rats and saline-treated diabetic rats): increased retinal artery and vein diameters
- blood pressure (systolic, telemetry) [2]: capable of reducing blood pressure
